In US9340580B2, “Peptide with multiple epitopes” (priority 2007, dated 2016):
Where a SMILES comes first, the peptide text is derived from it.

Experiment: solubility pre-screen in an aqueous, acidic milieu; further: test concentration or dose not given here
Assay type: physicochemical

Compound | Solubility test
CC[C@H](C)[C@H](NC(=O)[C@H](CCC(=O)O)NC(=O)[C@H](Cc1c[nH]cn1)NC(=O)[C@H](CC(N)=O)NC(=O)[C@H](C)NC(=O)[C@H](CS)NC(=O)[C@H](CC(=O)O)NC(=O)[C@H](CCCCN)NC(=O)[C@@H](NC(=O)[C@H](CC(=O)O)NC(=O)[C@@H](NC(=O)[C@H](CCC(N)=O)NC(=O)[C@@H](N)CC(=O)O)C(C)C)C(C)C)C(=O)N[C@@H](CCCCN)C(=O)N[C@@H](CCCCN)C(=O)O [HDM19] (H-DQVDVKDCANHEIKK-OH) | YES
CC(C)C[C@H](NC(=O)[C@H](CC(=O)O)NC(=O)[C@H](CC(C)C)NC(=O)[C@H](CO)NC(=O)[C@H](CCC(N)=O)NC(=O)[C@H](CC(N)=O)NC(=O)[C@@H](N)CCCNC(=N)N)C(=O)N[C@@H](C)C(=O)N[C@@H](CCC(=O)O)C(=O)N[C@@H](CCC(N)=O)C(=O)N[C@@H](CCC(=O)O)C(=O)N[C@@H](CC(C)C)C(=O)N[C@H](C(=O)N[C@@H](CC(=O)O)C(=O)N[C@@H](CS)C(=O)N[C@@H](C)C(=O)N[C@@H](CO)C(=O)N[C@@H](CCC(N)=O)C(=O)N[C@@H](Cc1c[nH]cn1)C(=O)O)C(C)C [HDM03C] (H-RNQSLDLAEQELVDCASQH-OH; N-terminus and C-terminus assumed) | YES
CC[C@H](C)[C@H](NC(=O)[C@@H](NC(=O)[C@@H](N)CS)[C@@H](C)CC)C(=O)N[C@@H](Cc1c[nH]cn1)C(=O)N[C@@H](CCCNC(=N)N)C(=O)NCC(=O)N[C@@H](CCCCN)C(=O)N1CCC[C@H]1C(=O)N[C@@H](Cc1ccccc1)C(=O)N[C@@H](CCC(N)=O)C(=O)N[C@@H](CC(C)C)C(=O)N[C@@H](CCC(=O)O)C(=O)N[C@@H](C)C(=O)O [HDM20] (H-CIIHRGKPFQLEA-OH; N-terminus and C-terminus assumed) | YES
CSCC[C@H](NC(=O)[C@@H]1CCCN1C(=O)[C@H](CC(=O)O)NC(=O)[C@H](Cc1ccccc1)NC(=O)[C@@H](NC(=O)[C@@H](N)CCC(=O)O)[C@@H](C)O)C(=O)N[C@@H](CCCCN)C(=O)N[C@H](C(=O)N1CCC[C@H]1C(=O)N[C@@H](CC(=O)O)C(=O)N[C@@H](Cc1c[nH]cn1)C(=O)N[C@@H](CO)C(=O)N[C@@H](CC(=O)O)C(=O)N[C@@H](CCCCN)C(=O)O)C(C)C [HDM29A] (H-ETFDPMKVPDHSDK-OH) | YES
CC(C)[C@H](NC(=O)[C@H](Cc1ccc(O)cc1)NC(=O)[C@@H](N)CCCNC(=N)N)C(=O)N[C@@H](C)C(=O)N[C@@H](CCCNC(=N)N)C(=O)N[C@@H](CCC(=O)O)C(=O)N[C@@H](CCC(N)=O)C(=O)N[C@@H](CO)C(=O)N[C@@H](CS)C(=O)N[C@@H](CCCNC(=N)N)C(=O)N[C@@H](CCCNC(=N)N)C(=O)N1CCC[C@H]1C(=O)N[C@@H](CC(N)=O)C(=O)O [HDM06] (H-RYVAREQSCRRPN-OH; N-terminus and C-terminus assumed) | YES
C[C@@H](O)[C@H](NC(=O)[C@H](CC(=O)O)NC(=O)[C@H](Cc1c[nH]c2ccccc12)NC(=O)[C@H](CO)NC(=O)[C@H](CC(N)=O)NC(=O)[C@@H](N)CCCNC(=N)N)C(=O)N[C@@H](CC(N)=O)C(=O)N[C@@H](Cc1c[nH]c2ccccc12)C(=O)NCC(=O)N[C@@H](CC(=O)O)C(=O)N[C@@H](CC(N)=O)C(=O)NCC(=O)N[C@@H](Cc1ccc(O)cc1)C(=O)NCC(=O)O [HDM16A] (H-RNSWDTNWGDNGYG-OH) | YES
CC(C)[C@H](NC(=O)[C@H](CCCNC(=N)N)NC(=O)[C@@H](N)CCCCN)C(=O)NCC(=O)N[C@@H](CC(=O)O)C(=O)N[C@@H](C)C(=O)N[C@@H](CC(N)=O)C(=O)N[C@H](C(=O)N[C@@H](CCCCN)C(=O)N[C@@H](CO)C(=O)N[C@@H](CCC(=O)O)C(=O)N[C@@H](CC(=O)O)C(=O)NCC(=O)O)C(C)C [HDM36] (H-KRVGDANVKSEDG-OH) | YES
CC[C@H](C)[C@H](NC(=O)[C@H](Cc1ccc(O)cc1)NC(=O)[C@@H](N)CCC(=O)O)C(=O)N[C@@H](CCC(N)=O)C(=O)N[C@@H](Cc1c[nH]cn1)C(=O)N[C@@H](CC(N)=O)C(=O)NCC(=O)N[C@H](C(=O)N[C@H](C(=O)N[C@@H](CCC(N)=O)C(=O)N[C@@H](CCC(=O)O)C(=O)N[C@@H](CO)C(=O)N[C@@H](Cc1ccc(O)cc1)C(=O)O)C(C)C)C(C)C [HDM05] (H-EYIQHNGVVQESY-OH) | YES
CC[C@H](C)[C@H](NC(=O)[C@H](CCCCN)NC(=O)[C@@H](N)CC(N)=O)C(=O)N[C@@H](CCCNC(=N)N)C(=O)N[C@@H](CCC(=O)O)C(=O)N[C@@H](C)C(=O)N[C@@H](CC(C)C)C(=O)N[C@@H](C)C(=O)N[C@@H](CCC(N)=O)C(=O)N[C@H](C(=O)N[C@@H](Cc1c[nH]cn1)C(=O)N[C@@H](CO)C(=O)N[C@@H](C)C(=O)O)[C@@H](C)O [HDM08] (H-NKIREALAQTHSA-OH) | YES
CC[C@H](C)[C@H](N)C(=O)N[C@@H](CC(=O)O)C(=O)N[C@@H](CC(C)C)C(=O)N[C@@H](CCCNC(=N)N)C(=O)N[C@@H](CCC(N)=O)C(=O)N[C@@H](CCSC)C(=O)N[C@@H](CCCNC(=N)N)C(=O)N[C@H](C(=O)N[C@H](C(=O)N[C@H](C(=O)N1CCC[C@H]1C(=O)N[C@H](C(=O)N[C@@H](CCCNC(=N)N)C(=O)O)[C@@H](C)CC)[C@@H](C)O)C(C)C)[C@@H](C)O [HDM01] (H-IDLRQMRTVTPIR-OH; N-terminus and C-terminus assumed) | YES
CC(C)C[C@H](NC(=O)[C@H](CC(=O)O)NC(=O)[C@@H](N)CCCCN)C(=O)N[C@@H](CC(=O)O)C(=O)N[C@@H](C)C(=O)N[C@@H](Cc1ccccc1)C(=O)N[C@@H](CCCNC(=N)N)C(=O)N[C@@H](Cc1c[nH]cn1)C(=O)N[C@@H](Cc1ccc(O)cc1)C(=O)N[C@@H](CC(=O)O)C(=O)NCC(=O)N[C@@H](CCCNC(=N)N)C(=O)N[C@H](C(=O)O)[C@@H](C)O [HDM12] (H-KDLDAFRHYDGRT-OH) | YES
CC(C)[C@H](NC(=O)[C@H](C)NC(=O)[C@@H](N)CCC(=O)O)C(=O)N[C@@H](Cc1ccccc1)C(=O)N[C@@H](CCC(=O)O)C(=O)N[C@@H](C)C(=O)N[C@@H](CC(N)=O)C(=O)N[C@@H](CCC(N)=O)C(=O)N[C@@H](CC(N)=O)C(=O)N[C@H](C(=O)N[C@@H](CCCCN)C(=O)N[C@H](C(=O)N[C@@H](C)C(=O)N[C@@H](CCCCN)C(=O)O)[C@@H](C)O)[C@@H](C)O [HDM22A] (H-EAVFEANQNTKTAK-OH; N-terminus and C-terminus assumed) | YES
CC[C@H](C)[C@H](NC(=O)[C@H](CC(N)=O)NC(=O)[C@@H](N)CCCNC(=N)N)C(=O)N[C@@H](CCC(N)=O)C(=O)N[C@H](C(=O)N[C@@H](CCCNC(=N)N)C(=O)NCC(=O)N[C@@H](CC(C)C)C(=O)N[C@@H](CCCCN)C(=O)N[C@@H](CCC(N)=O)C(=O)N[C@@H](CCSC)C(=O)N[C@@H](CCCCN)C(=O)N[C@@H](CCCNC(=N)N)C(=O)N[C@H](C(=O)NCC(=O)O)C(C)C)C(C)C [HDM34] (H-RNIQVRGLKQMKRVG-OH; N-terminus and C-terminus assumed) | YES
CSCC[C@H](NC(=O)[C@H](CCC(=O)O)NC(=O)[C@H](C)NC(=O)[C@H](CCCNC(=N)N)NC(=O)[C@@H](NC(=O)[C@@H](NC(=O)[C@@H](N)CC(=O)O)[C@@H](C)O)C(C)C)C(=O)N[C@H](C(=O)N[C@@H](CCCCN)C(=O)N[C@H](C(=O)N[C@@H](CC(C)C)C(=O)N[C@@H](C)C(=O)N1CCC[C@H]1C(=O)O)C(C)C)[C@@H](C)O [HDM49] (H-DTVRAEMTKVLAP-OH; N-terminus and C-terminus assumed) | YES
CC[C@H](C)[C@H](N)C(=O)NCC(=O)N[C@H](C(=O)N[C@@H](CCCCN)C(=O)N[C@@H](CC(=O)O)C(=O)N[C@@H](CC(C)C)C(=O)N[C@@H](CC(=O)O)C(=O)N[C@@H](C)C(=O)N[C@@H](Cc1ccccc1)C(=O)N[C@@H](CCCNC(=N)N)C(=O)N[C@@H](Cc1c[nH]cn1)C(=O)N[C@@H](Cc1ccc(O)cc1)C(=O)N[C@@H](CC(=O)O)C(=O)O)[C@@H](C)CC [HDM11] (H-IGIKDLDAFRHYD-OH) | YES
CSCC[C@H](NC(=O)[C@H](CCC(N)=O)NC(=O)[C@H](CCCCN)NC(=O)[C@H](CC(C)C)NC(=O)CNC(=O)[C@@H](N)CCCNC(=N)N)C(=O)N[C@@H](CCCCN)C(=O)N[C@@H](CCCNC(=N)N)C(=O)N[C@H](C(=O)NCC(=O)N[C@@H](CC(=O)O)C(=O)N[C@@H](C)C(=O)N[C@@H](CC(N)=O)C(=O)O)C(C)C [HDM35] (H-RGLKQMKRVGDAN-OH; N-terminus and C-terminus assumed) | YES
CC(C)C[C@H](NC(=O)[C@H](CC(=O)O)NC(=O)[C@H](CC(C)C)NC(=O)[C@H](CCC(=O)O)NC(=O)[C@H](CO)NC(=O)[C@@H]1CCCN1C(=O)[C@@H](NC(=O)[C@H](CC(N)=O)NC(=O)[C@@H](NC(=O)[C@H](CO)NC(=O)[C@@H](N)CC(N)=O)C(C)C)C(C)C)C(=O)N[C@@H](CCCNC(=N)N)C(=O)N[C@@H](CO)C(=O)N[C@@H](CC(C)C)C(=O)N[C@@H](CCCNC(=N)N)C(=O)N[C@H](C(=O)O)[C@@H](C)O [HDM17] (H-NSVNVPSELDLRSLRT-OH) | YES
CC[C@H](C)[C@H](NC(=O)[C@H](CC(N)=O)NC(=O)[C@H](CCCNC(=N)N)NC(=O)[C@H](CCSC)NC(=O)[C@H](CC(=O)O)NC(=O)[C@@H](N)CC(C)C)C(=O)N[C@@H](CCC(N)=O)C(=O)N[C@H](C(=O)N[C@@H](CCCNC(=N)N)C(=O)NCC(=O)N[C@@H](CC(C)C)C(=O)N[C@@H](CCCCN)C(=O)N[C@@H](CCC(N)=O)C(=O)O)C(C)C [HDM33] (H-LDMRNIQVRGLKQ-OH; N-terminus and C-terminus assumed) | YES
CSCC[C@H](NC(=O)[C@H](CO)NC(=O)[C@@H](NC(=O)[C@@H](NC(=O)[C@H](CC(=O)O)NC(=O)[C@@H](N)CC(=O)O)C(C)C)C(C)C)C(=O)N[C@@H](CCC(=O)O)C(=O)N[C@@H](Cc1ccc(O)cc1)C(=O)N[C@@H](CC(=O)O)C(=O)N[C@@H](CC(C)C)C(=O)N[C@@H](C)C(=O)N[C@@H](Cc1ccc(O)cc1)C(=O)N[C@@H](CCCCN)C(=O)O [HDM39] (H-DDVVSMEYDLAYK-OH; N-terminus and C-terminus assumed) | NO*
CC(C)[C@H](NC(=O)CNC(=O)[C@H](CC(=O)O)NC(=O)[C@H](CCC(=O)O)NC(=O)[C@H](CO)NC(=O)[C@H](CCCCN)NC(=O)[C@@H](NC(=O)[C@H](CC(N)=O)NC(=O)[C@H](C)N)C(C)C)C(=O)N[C@H](C(=O)N[C@@H](CCCCN)C(=O)N[C@@H](C)C(=O)N[C@@H](Cc1c[nH]cn1)C(=O)O)C(C)C [HDM37] (H-ANVKSEDGVVKAH-OH) | YES
